Assay results from the NIST ThermoML archive (doi:10.1016/j.jct.2009.10.002).

Tests used:
[1] = mn = molality of the nth substance listed, in mol/kg; settings: 298.15 K, 101 kPa, Liquid, Vibrating tube method
[2] = 298.15 K; 101.33 kPa; Liquid; Vibrating tube method

O=C(O)c1ccccc1 [benzoic acid] + CCCCCCCCO
[1]
Settings | mass density [kg/m3]
m1 = 0.002452 | 822.18
m1 = 0.005198 | 822.27
m1 = 0.01254 | 822.53
m1 = 0.01324 | 822.55
m1 = 0.03589 | 823.34
m1 = 0.06692 | 824.43
m1 = 0.198 | 828.84
m1 = 0.3209 | 832.91
m1 = 0.4227 | 836.12
m1 = 0.5096 | 838.89

NC(=O)c1ccccc1O [2-hydroxybenzamide] + CCCCCCCCO
[1]
Settings | mass density [kg/m3]
m1 = 0.002458 | 822.19
m1 = 0.003905 | 822.23
m1 = 0.0061 | 822.31
m1 = 0.007816 | 822.37
m1 = 0.01182 | 822.51
m1 = 0.02311 | 822.87
m1 = 0.03084 | 823.13
m1 = 0.03859 | 823.39
m1 = 0.05387 | 823.86
m1 = 0.08947 | 825.16

NC(=O)c1ccc(O)cc1 [4-hydroxybenzamide] + CCCCCCCCO
[1]
Settings | mass density [kg/m3]
m1 = 0.002127 | 822.18
m1 = 0.005332 | 822.31
m1 = 0.005725 | 822.34
m1 = 0.007571 | 822.43
m1 = 0.01115 | 822.59
m1 = 0.01722 | 822.85
m1 = 0.02131 | 822.99
m1 = 0.02267 | 823.06
m1 = 0.02734 | 823.25
m1 = 0.02874 | 823.32
m1 = 0.038 | 823.71
m1 = 0.05733 | 824.52
m1 = 0.0819 | 825.53
m1 = 0.09825 | 826.23
m1 = 0.1209 | 827.18
m1 = 0.1408 | 828.01
m1 = 0.1856 | 829.93

CC(=O)Nc1cccc(O)c1 [3-acetamidophenol] + CCCCCCCCO
[1]
Settings | mass density [kg/m3]
m1 = 0.002796 | 822.21
m1 = 0.006909 | 822.37
m1 = 0.008394 | 822.43
m1 = 0.01356 | 822.62
m1 = 0.02056 | 822.89
m1 = 0.04126 | 823.67
m1 = 0.08892 | 825.48
m1 = 0.1451 | 827.61
m1 = 0.1875 | 829.24
m1 = 0.2708 | 832.45

CC(=O)Nc1ccccc1 [N-phenylethanamide] + CCCCCCCCO
[1]
Settings | mass density [kg/m3]
m1 = 0.002139 | 822.18
m1 = 0.00565 | 822.29
m1 = 0.01113 | 822.46
m1 = 0.01413 | 822.55
m1 = 0.02434 | 822.84
m1 = 0.02629 | 822.9
m1 = 0.05259 | 823.67
m1 = 0.08132 | 824.49
m1 = 0.1056 | 825.18
m1 = 0.1482 | 826.35
m1 = 0.1847 | 827.37
m1 = 0.2858 | 830.1
m1 = 0.3663 | 832.25

CCCCCCCCO [octan-1-ol]
Settings | mass density [kg/m3]
[2] | 822.11

Oc1ccccc1 [phenol] + CCCCCCCCO
[1]
Settings | mass density [kg/m3]
m1 = 0.01293 | 822.32
m1 = 0.0235 | 822.59
m1 = 0.03299 | 822.87
m1 = 0.04712 | 823.32
m1 = 0.06563 | 823.78
m1 = 0.1179 | 825.01
m1 = 0.2355 | 827.82
m1 = 0.2692 | 828.62
m1 = 0.3564 | 831.14
m1 = 0.4787 | 834.18

NC(=O)c1ccccc1 [benzamide] + CCCCCCCCO
[1]
Settings | mass density [kg/m3]
m1 = 0.004751 | 822.25
m1 = 0.009145 | 822.4
m1 = 0.01194 | 822.49
m1 = 0.01802 | 822.68
m1 = 0.02473 | 822.9
m1 = 0.03952 | 823.38
m1 = 0.07569 | 824.52
m1 = 0.108 | 825.55
m1 = 0.1331 | 826.37
m1 = 0.179 | 827.87

CC(=O)Nc1ccc(C(=O)O)cc1 [4-acetamidobenzoic acid] + CCCCCCCCO
[1]
Settings | mass density [kg/m3]
m1 = 0.000708 | 822.14
m1 = 0.00077 | 822.15
m1 = 0.000914 | 822.16
m1 = 0.001192 | 822.17
m1 = 0.001367 | 822.18
m1 = 0.002266 | 822.23
m1 = 0.002865 | 822.26
m1 = 0.002919 | 822.26
m1 = 0.003657 | 822.3
m1 = 0.005744 | 822.42
m1 = 0.01212 | 822.76
m1 = 0.01816 | 823.12
m1 = 0.02407 | 823.47
m1 = 0.0284 | 823.73
m1 = 0.03621 | 824.17

CC(=O)Nc1ccccc1C(=O)O [2-acetamidobenzoic acid] + CCCCCCCCO
[1]
Settings | mass density [kg/m3]
m1 = 0.004871 | 822.31
m1 = 0.008993 | 822.47
m1 = 0.01189 | 822.58
m1 = 0.01818 | 822.82
m1 = 0.02358 | 823.02
m1 = 0.03392 | 823.42
m1 = 0.05837 | 824.35
m1 = 0.0873 | 825.4
m1 = 0.1273 | 826.83
m1 = 0.1682 | 828.43

CC(=O)Nc1cccc(C(=O)O)c1 [3-(acetylamino)benzoic acid] + CCCCCCCCO
[1]
Settings | mass density [kg/m3]
m1 = 0.000244 | 822.13
m1 = 0.000488 | 822.14
m1 = 0.000973 | 822.17
m1 = 0.001081 | 822.17
m1 = 0.001283 | 822.18
m1 = 0.001361 | 822.19
m1 = 0.001375 | 822.19
m1 = 0.001452 | 822.19
m1 = 0.001582 | 822.2
m1 = 0.002358 | 822.23
m1 = 0.003857 | 822.28
m1 = 0.006025 | 822.36
m1 = 0.007586 | 822.43
m1 = 0.009397 | 822.51
m1 = 0.0109 | 822.57
m1 = 0.01161 | 822.6
m1 = 0.01355 | 822.68
m1 = 0.01453 | 822.72

NC(=O)c1cccc(O)c1 [3-hydroxy-benzamide] + CCCCCCCCO
[1]
Settings | mass density [kg/m3]
m1 = 0.001492 | 822.16
m1 = 0.002531 | 822.2
m1 = 0.003737 | 822.25
m1 = 0.006435 | 822.38
m1 = 0.007522 | 822.43
m1 = 0.01163 | 822.62
m1 = 0.02156 | 823.03
m1 = 0.03239 | 823.51
m1 = 0.04091 | 823.88
m1 = 0.05285 | 824.43
m1 = 0.07208 | 825.26
m1 = 0.08749 | 825.95

CCOc1ccc(NC(C)=O)cc1 [N-(4-ethoxyphenyl)ethanamide] + CCCCCCCCO
[1]
Settings | mass density [kg/m3]
m1 = 0.00971 | 822.4
m1 = 0.01263 | 822.48
m1 = 0.01969 | 822.67
m1 = 0.0229 | 822.75
m1 = 0.02432 | 822.79
m1 = 0.02706 | 822.86
m1 = 0.03645 | 823.12
m1 = 0.04962 | 823.48
m1 = 0.06288 | 823.85
m1 = 0.08214 | 824.37
m1 = 0.105 | 824.98
m1 = 0.1351 | 825.83
m1 = 0.1591 | 826.63

CC(=O)Nc1ccccc1O [N-(2-hydroxyphenyl)ethanamide] + CCCCCCCCO
[1]
Settings | mass density [kg/m3]
m1 = 0.001728 | 822.19
m1 = 0.002758 | 822.23
m1 = 0.003165 | 822.24
m1 = 0.003211 | 822.24
m1 = 0.004195 | 822.28
m1 = 0.005164 | 822.31
m1 = 0.006563 | 822.36
m1 = 0.01154 | 822.56
m1 = 0.0164 | 822.75
m1 = 0.01909 | 822.86
m1 = 0.02399 | 823.06
m1 = 0.03356 | 823.46

CC(=O)Nc1ccc(O)cc1 [N-acetyl-p-aminophenol] + CCCCCCCCO
[1]
Settings | mass density [kg/m3]
m1 = 0.006684 | 822.49
m1 = 0.009351 | 822.61
m1 = 0.01261 | 822.76
m1 = 0.0141 | 822.83
m1 = 0.01601 | 822.91
m1 = 0.01873 | 823.05
m1 = 0.02173 | 823.19
m1 = 0.02486 | 823.33
m1 = 0.03075 | 823.59
m1 = 0.03578 | 823.8
m1 = 0.04077 | 824.01
m1 = 0.04581 | 824.23
m1 = 0.05103 | 824.46
m1 = 0.05889 | 824.81
m1 = 0.06631 | 825.1
m1 = 0.07665 | 825.5
m1 = 0.08633 | 825.93
m1 = 0.1379 | 828.16
